Experimental findings from ChEMBL document CHEMBL1122489, “Pyrimidine derivatives. 4. Synthesis and antihypertensive activity of 4-amino-2-(4-cinnamoylpiperazino)-6,7-dimethoxyquinazoline derivatives” (J Med Chem, 1983) are described below.

Holding throughout (format): functional
Test [1] relates to Rattus norvegicus. As to the kind of experiment: Antihypertensive activity rating in conscious SHR after 1 hr post dose at 3 mg/kg (po).
The subject of test [2] is Rattus norvegicus. As to the kind of experiment: Antihypertensive activity rating in conscious SHR after 24 hr post dose at 0.3 mg/kg (po).
In test [3] the test system is Rattus norvegicus. As to the kind of experiment: Antihypertensive activity rating in conscious SHR after 24 hr post dose at 3 mg/kg (po).
Test [4] has as its system Rattus norvegicus. The experiment in a line: Antihypertensive activity rating in conscious SHR after 3 hr post dose at 0.3 mg/kg (po).
The subject of test [5] is Rattus norvegicus. As to the kind of experiment: Antihypertensive activity rating in conscious SHR after 3 hr post dose at 1 mg/kg (po).
Test [6] deals with Rattus norvegicus. The experiment in a line: Antihypertensive activity rating in conscious SHR after 3 h post dose at 3 mg/kg (po).
Test [7] has as its system Rattus norvegicus. As to the kind of experiment: Antihypertensive activity rating in conscious SHR after 6 hr post dose at 0.3 mg/kg (po).
The subject of test [8] is Rattus norvegicus. The experiment in a line: Antihypertensive activity rating in conscious SHR after 6 hr post dose at 1 mg/kg (po).
Test [9] deals with Rattus norvegicus. The experiment in a line: Antihypertensive activity rating in conscious SHR after 6 hr post dose at 3 mg/kg (po).
For test [10], the system named is Rattus norvegicus. As to the kind of experiment: Antihypertensive activity rating in conscious SHR after 1 hr post dose at 0.3 mg/kg (po).
In test [11] the test system is Rattus norvegicus. As to the kind of experiment: Antihypertensive activity rating in conscious SHR after 1 hr post dose at 1 mg/kg (po).
Test [12] has as its system Rattus norvegicus. The experiment in a line: Maximum percent decrease in blood pressure in SHR dosed at 1 mg/kg (hour post dose in parentheses).
Test [13] concerns Rattus norvegicus. The experiment in a line: Maximum percent decrease in blood pressure in SHR dosed at 0.3 mg/kg (hour post dose in parentheses).
Test [14] relates to Rattus norvegicus. As to the kind of experiment: Maximum percent decrease in blood pressure in SHR dosed at 3 mg/kg (hour post dose in parentheses).
Test [15] deals with Rattus norvegicus. As to the kind of experiment: Effect on blood pressure (initial) in renal hypertensive rats dosed at 10 mg/kg.
The subject of test [16] is Rattus norvegicus. As to the kind of experiment: Effect on blood pressure in renal hypertensive rats dosed at 10 mg/kg after 3 h.
In test [17] the test system is Rattus norvegicus. The experiment in a line: Effect on blood pressure in renal hypertensive rats dosed at 10 mg/kg after 6 h.
The test system of test [18] is Rattus norvegicus. As to the kind of experiment: Effect on blood pressure in renal hypertensive rats dosed at 3 mg/kg after 1 h.
Test [19] concerns Rattus norvegicus. The experiment in a line: Effect on blood pressure in renal hypertensive rats dosed at 3 mg/kg after 12 h.
In test [20] the test system is Rattus norvegicus. The experiment in a line: Effect on blood pressure in renal hypertensive rats dosed at 3 mg/kg after 24 h.
Test [21] concerns Rattus norvegicus. The experiment in a line: Effect on blood pressure in renal hypertensive rats dosed at 3 mg/kg after 6 h.
For test [22], the system named is Rattus norvegicus. The experiment in a line: Effect on mean blood pressure (initial) in renal hypertensive rats dosed at 3 mg/kg.
For test [23], the species on record is Rattus norvegicus. As to the kind of experiment: Compound was tested for alpha-adrenoceptor blocking activity by its ability to antagonize norepinephrine contraction in the rat thoracic aorta. The following applies: read-out: pA2 (converted).
Test [24] concerns Rattus norvegicus. As to the kind of experiment: Effect on blood pressure in renal hypertensive rats dosed at 10 mg/kg after 1 h.
The test system of test [25] is Rattus norvegicus. The experiment in a line: Effect on blood pressure in renal hypertensive rats dosed at 10 mg/kg after 12 h.
Test [26] deals with Rattus norvegicus. As to the kind of experiment: Effect on blood pressure in renal hypertensive rats dosed at 10 mg/kg after 24 h.
The nature of test [27]: Potency ratio in rat thoracic aorta.
Test [28] relates to Rattus norvegicus. The experiment in a line: Antihypertensive activity rating in conscious SHR after 24 hr post dose at 1 mg/kg (po).
The subject of test [29] is Rattus norvegicus. The experiment in a line: Effect on blood pressure in renal hypertensive rats dosed at 3 mg/kg after 3 h.
Test [30] relates to Rattus norvegicus. The experiment in a line: Effect on blood pressure in renal hypertensive rats dosed at 10mg/kg, po after 1 h.
Test [31] has as its system Rattus norvegicus. The experiment in a line: Effect on blood pressure in renal hypertensive rats dosed at 10 mg/kg, po after 24 h.
Test [32] deals with Rattus norvegicus. The experiment in a line: Effect on blood pressure in renal hypertensive rats dosed at 10 mg/kg, po after 3 h.
Test [33] relates to Rattus norvegicus. As to the kind of experiment: Effect on blood pressure in renal hypertensive rats dosed at 10mg/kg, po after 6 h.
Test [34] deals with Rattus norvegicus. The experiment in a line: Effect on blood pressure in renal hypertensive rats dosed at 3 mg/kg, po after 1 h.
Test [35] relates to Rattus norvegicus. As to the kind of experiment: Effect on blood pressure in renal hypertensive rats dosed at 3 mg/kg, po after 24 h.
Test [36] deals with Rattus norvegicus. As to the kind of experiment: Effect on blood pressure in renal hypertensive rats dosed at 3 mg/kg, po after 3 h.
For test [37], the system named is Rattus norvegicus. As to the kind of experiment: Effect on blood pressure in renal hypertensive rats dosed at 3 mg/kg, po after 6 h.
Test [38] relates to Rattus norvegicus. As to the kind of experiment: Effect on mean blood pressure (initial) in renal hypertensive rats dosed at 3 mg/kg, po.
The test system of test [39] is Rattus norvegicus. The experiment in a line: Effect on blood pressure (initial) in renal hypertensive rats dosed at 10mg/kg, po.

With `CCOc1ccc(/C=C/C(=O)N2CCN(c3nc(N)c4cc(OC)c(OC)cc4n3)CC2)cc1`, the Activity worked out at 0 with Rattus norvegicus [1]; 1 in the test on Rattus norvegicus [2]; 0 in the test on Rattus norvegicus [3]; 0 in the test with Rattus norvegicus [4]; 1 with Rattus norvegicus [5]; 1 in the test on Rattus norvegicus [6]. Further, the Activity in the test with Rattus norvegicus [7] turned out to be 0; in the test with Rattus norvegicus [8] it was 2; with Rattus norvegicus [9], 2; in the test on Rattus norvegicus [10] it was 0; with Rattus norvegicus [11], 0; with Rattus norvegicus [28], 0. Moreover, the Decrease in the test on Rattus norvegicus [12] was 21%; in the test with Rattus norvegicus [13], 13%; with Rattus norvegicus [14], 24%. In addition, the Mean blood pressure is reported as 204 mmHg in the test on Rattus norvegicus [15]; -16.3 mmHg in the test on Rattus norvegicus [16]; -19.1 mmHg in the test on Rattus norvegicus [17]; -4 mmHg in the test with Rattus norvegicus [18]; -10.6 mmHg in the test on Rattus norvegicus [19]; -2.6 mmHg with Rattus norvegicus [20]. In addition, the Mean blood pressure is listed as -14.5 mmHg in the test on Rattus norvegicus [21]; 203 mmHg in the test on Rattus norvegicus [22]; -6.2 mmHg in the test with Rattus norvegicus [24]; -15.5 mmHg with Rattus norvegicus [25]; -10.4 mmHg with Rattus norvegicus [26]; -11.7 mmHg with Rattus norvegicus [29]. Also, the Kb in the test listed under Rattus norvegicus [23] was 2.19 nM. For the same molecule, in test [27], the Ratio was found to be 0.02.

Regarding `COc1cc2nc(N3CCN(C(=O)c4ccco4)CC3)nc(N)c2cc1OC.Cl` [PRAZOSIN HYDROCHLORIDE], the Activity was determined as 2 with Rattus norvegicus [1]; 0 in the test on Rattus norvegicus [2]; 0 in the test with Rattus norvegicus [3]; 1 in the test with Rattus norvegicus [4]; 2 in the test with Rattus norvegicus [5]; 1 in the test with Rattus norvegicus [6]. Also, the Activity in the test with Rattus norvegicus [7] is recorded as 1; in the test on Rattus norvegicus [8], 1; with Rattus norvegicus [9], 1; with Rattus norvegicus [10], 1; with Rattus norvegicus [11], 2; with Rattus norvegicus [28], 0. Besides, the Decrease in the test with Rattus norvegicus [12] turned out to be 25%; with Rattus norvegicus [13] it was 19%; with Rattus norvegicus [14], 27%. For the same molecule, the Mean blood pressure is reported as -25.6 mmHg in the test with Rattus norvegicus [30]; -8.9 mmHg in the test with Rattus norvegicus [31]; -17.6 mmHg with Rattus norvegicus [32]; -14.7 mmHg in the test with Rattus norvegicus [33]; -17.9 mmHg in the test on Rattus norvegicus [34]; -3.3 mmHg with Rattus norvegicus [35]. For the same molecule, the Mean blood pressure is listed as -15.5 mmHg in the test on Rattus norvegicus [36], -14.5 mmHg in the test on Rattus norvegicus [37], 197 mmHg in the test on Rattus norvegicus [38] and 187 mmHg with Rattus norvegicus [39]. Moreover, the Kb in the test filed under Rattus norvegicus [23] was 0.0513 nM. In addition, in test [27], the Ratio is 1.

Turning to `COc1cc2nc(N3CCN(C(=O)/C=C/c4ccccc4)CC3)nc(N)c2cc1OC`, the Activity in the test with Rattus norvegicus [1] amounted to 2; in the test on Rattus norvegicus [2], 0; in the test with Rattus norvegicus [3], 0; in the test on Rattus norvegicus [4], 0; in the test on Rattus norvegicus [5], 1; in the test with Rattus norvegicus [6] it was 1. For the same molecule, the Activity with Rattus norvegicus [7] is 1; with Rattus norvegicus [8], 1; in the test with Rattus norvegicus [9] it was 1; in the test with Rattus norvegicus [10] it was 0; in the test with Rattus norvegicus [11], 1; with Rattus norvegicus [28] it was 0. The Decrease was determined as 14% in the test on Rattus norvegicus [12], 10% with Rattus norvegicus [13] and 22% in the test with Rattus norvegicus [14]. For the same molecule, the Mean blood pressure in the test with Rattus norvegicus [15] was 199 mmHg; with Rattus norvegicus [16], -14.1 mmHg; in the test with Rattus norvegicus [17] it was -15.9 mmHg; in the test on Rattus norvegicus [18], -3.7 mmHg; in the test on Rattus norvegicus [20], -0.1 mmHg; with Rattus norvegicus [21], -7.2 mmHg. Moreover, the Mean blood pressure is reported as 195 mmHg in the test on Rattus norvegicus [22], -12.6 mmHg in the test with Rattus norvegicus [24], -14.1 mmHg with Rattus norvegicus [26] and -6.8 mmHg in the test on Rattus norvegicus [29]. Further, the Kb in the test filed under Rattus norvegicus [23] was 0.724 nM. In [27], the Ratio is listed as 0.07.

For the molecule `COc1cc2nc(N3CCN(C(=O)/C=C/c4ccco4)CC3)nc(N)c2cc1OC.Cl`, the Activity is given as 3 in the test with Rattus norvegicus [1]; 0 with Rattus norvegicus [2]; 0 in the test with Rattus norvegicus [3]; 1 with Rattus norvegicus [4]; 1 in the test with Rattus norvegicus [5]; 2 with Rattus norvegicus [6]. In addition, the Activity was 1 in the test on Rattus norvegicus [7]; 2 in the test with Rattus norvegicus [8]; 2 with Rattus norvegicus [9]; 1 in the test on Rattus norvegicus [10]; 2 with Rattus norvegicus [11]; 0 in the test with Rattus norvegicus [28]. Further, the results for the Decrease with Rattus norvegicus [12], in the test with Rattus norvegicus [13] and in the test with Rattus norvegicus [14] were 28%, 15% and 41%, respectively. Moreover, the Mean blood pressure was 181 mmHg with Rattus norvegicus [15]; -16.3 mmHg in the test with Rattus norvegicus [16]; -17.4 mmHg in the test on Rattus norvegicus [17]; -17.1 mmHg in the test with Rattus norvegicus [18]; -5.2 mmHg in the test on Rattus norvegicus [20]; -18.3 mmHg with Rattus norvegicus [21]. The Mean blood pressure in the test on Rattus norvegicus [22] is 193 mmHg; in the test with Rattus norvegicus [24] it was -17.9 mmHg; in the test on Rattus norvegicus [26], -11.7 mmHg; in the test with Rattus norvegicus [29] it was -16.9 mmHg. The Kb in the test listed under Rattus norvegicus [23] was 0.141 nM. In addition, the Ratio in test [27] was determined as 0.4.

`Cc1ccc(N(CC2=NCCN2)c2cccc(O)c2)cc1` [PHENTOLAMINE]: the Kb in the test listed under Rattus norvegicus [23] is 8.51 nM. Moreover, the Ratio in [27] is recorded as 0.006.

As for `COc1cc2nc(N3CCN(C(=O)/C=C/c4ccsc4)CC3)nc(N)c2cc1OC`, the Activity is reported as 2 in the test on Rattus norvegicus [1]; 0 with Rattus norvegicus [2]; 0 in the test on Rattus norvegicus [3]; 1 in the test with Rattus norvegicus [4]; 1 with Rattus norvegicus [5]; 1 in the test with Rattus norvegicus [6]. The Activity was 1 with Rattus norvegicus [7]; 1 in the test on Rattus norvegicus [8]; 1 in the test with Rattus norvegicus [9]; 1 in the test on Rattus norvegicus [10]; 1 with Rattus norvegicus [11]; 0 in the test with Rattus norvegicus [28]. The Decrease is 19% in the test on Rattus norvegicus [12], 11% in the test on Rattus norvegicus [13] and 25% with Rattus norvegicus [14].
